Measurements published in EPA's CvTdb concentration-time database.

Legend:
Rat [1] = experiment: concentration in brain after dosing; conditions: 24 h; dosed: Perfluorooctane Sulfonate; 20 mg/kg; oral; Male; Harlan Sprague Dawley
Rat [2] = experiment: concentration in brain after dosing; conditions: 24 h; dosed: Perfluorooctane Sulfonate; 2 mg/kg; oral; Female; Harlan Sprague Dawley
Rat [3] = experiment: concentration in brain after dosing; conditions: 24 h; dosed: Perfluorooctane Sulfonate; 2 mg/kg; oral; Female; Harlan Sprague Dawley; remark: listed apart in the source
Rat [4] = experiment: concentration in liver after dosing; conditions: 6 h; dosed: Perfluorooctane Sulfonate; 2 mg/kg; oral; Female; Harlan Sprague Dawley
Rat [5] = experiment: concentration in kidney after dosing; conditions: 3360 h; dosed: Perfluorooctane Sulfonate; 20 mg/kg; oral; Male; Harlan Sprague Dawley
Rat [6] = experiment: concentration in kidney after dosing; conditions: 3360 h; dosed: Perfluorooctane Sulfonate; 2 mg/kg; oral; Female; Harlan Sprague Dawley
Rat [7] = experiment: concentration in liver after dosing; conditions: 3360 h; dosed: Perfluorooctane Sulfonate; 2 mg/kg; oral; Female; Harlan Sprague Dawley
Rat [8] = experiment: concentration in liver after dosing; conditions: 3360 h; dosed: Perfluorooctane Sulfonate; 20 mg/kg; oral; Male; Harlan Sprague Dawley
Rat [9] = experiment: concentration in kidney after dosing; conditions: 1848 h; dosed: Perfluorooctane Sulfonate; 2 mg/kg; oral; Female; Harlan Sprague Dawley
Rat [10] = experiment: concentration in plasma after dosing; conditions: 864 h; dosed: Perfluorooctane Sulfonate; 2 mg/kg; oral; Female; Harlan Sprague Dawley
Rat [11] = experiment: concentration in brain after dosing; conditions: 24 h; dosed: Perfluorooctane Sulfonate; 20 mg/kg; oral; Female; F344
Rat [12] = experiment: concentration in kidney after dosing; conditions: 24 h; dosed: Perfluorooctane Sulfonate; 2 mg/kg; oral; Female; Harlan Sprague Dawley
Rat [13] = experiment: concentration in plasma after dosing; conditions: 15 h; dosed: Gemfibrozil; 4.29 mg/kg; oral; Male; Sprague-Dawley
Rat [14] = experiment: concentration in plasma after dosing; conditions: 10 min; dosed: Gemfibrozil; 50 mg/kg; oral; Male; Sprague-Dawley
Rat [15] = experiment: concentration in plasma after dosing; conditions: 2 h; dosed: Gemfibrozil; 4.29 mg/kg; oral; Male; Sprague-Dawley
Rat [16] = experiment: concentration in plasma after dosing; conditions: 18 h; dosed: Gemfibrozil; 50 mg/kg; oral; Male; Sprague-Dawley
Rat [17] = experiment: concentration in plasma after dosing; conditions: 0.5 h; dosed: Gemfibrozil; 100 mg/kg; oral; Male; Sprague-Dawley
Rat [18] = experiment: concentration in liver after dosing; conditions: 0.5 h; dosed: Perfluorohexanoic Acid; 80 mg/kg; oral; Female; Harlan Sprague Dawley
Rat [19] = experiment: concentration in plasma after dosing; conditions: 5 min; dosed: Perfluorohexanoic Acid; 40 mg/kg; iv; Male; F344
Rat [20] = experiment: concentration in liver after dosing; conditions: 1 h; dosed: Perfluorohexanoic Acid; 80 mg/kg; oral; Female; Harlan Sprague Dawley
Rat [21] = experiment: concentration in plasma after dosing; conditions: dosed: Perfluorohexanoic Acid, 40 mg/kg, iv, Male, F344
Rat [22] = experiment: concentration in plasma after dosing; conditions: 0.75 h; dosed: Perfluorohexanoic Acid; 80 mg/kg; oral; Male; Harlan Sprague Dawley
Rat [23] = experiment: concentration in plasma after dosing; conditions: 1.5 h; dosed: Perfluorohexanoic Acid; 40 mg/kg; iv; Male; F344
Rat [24] = experiment: concentration in plasma after dosing; conditions: 1 h; dosed: Perfluorohexanoic Acid; 40 mg/kg; iv; Female; Harlan Sprague-Dawley
Rat [25] = experiment: concentration in kidney after dosing; conditions: 12 h; dosed: Perfluorohexanoic Acid; 80 mg/kg; oral; Male; Harlan Sprague Dawley
Rat [26] = experiment: concentration in plasma after dosing; conditions: 0.5 h; dosed: Perfluorohexanoic Acid; 40 mg/kg; iv; Male; F344
Rat [27] = experiment: concentration in liver after dosing; conditions: 6 h; dosed: Perfluorohexanoic Acid; 80 mg/kg; oral; Male; Harlan Sprague Dawley
Rat [28] = experiment: concentration in kidney after dosing; conditions: 0.5 h; dosed: Perfluorohexanoic Acid; 80 mg/kg; oral; Female; Harlan Sprague Dawley
Rat [29] = experiment: concentration in plasma after dosing; conditions: 0.25 h; dosed: Perfluorohexanoic Acid; 40 mg/kg; iv; Male; F344
Rat [30] = experiment: concentration in plasma after dosing; conditions: dosed: Perfluorohexanoic Acid, 40 mg/kg, iv, Male, F344; remark: listed apart in the source
Rat [31] = experiment: concentration in liver after dosing; conditions: 6 h; dosed: Perfluorohexanoic Acid; 80 mg/kg; oral; Male; Harlan Sprague Dawley; remark: listed apart in the source
Rat [32] = experiment: concentration in brain after dosing; conditions: 0.5 h; dosed: Fluorotelomer alcohol 8+2; 80 mg/kg; oral; Female; Harlan Sprague Dawley
Rat [33] = experiment: concentration in plasma after dosing; conditions: 192 h; dosed: Fluorotelomer alcohol 8+2; 24 mg/kg; oral; Male; Harlan Sprague Dawley
Rat [34] = experiment: concentration in plasma after dosing; conditions: dosed: Fluorotelomer alcohol 8+2, 12 mg/kg, oral, Male, Harlan Sprague Dawley
Rat [35] = experiment: concentration in plasma after dosing; conditions: dosed: Fluorotelomer alcohol 8+2, 12 mg/kg, oral, Male, Harlan Sprague Dawley; remark: listed apart in the source
Rat [36] = experiment: concentration in kidney after dosing; conditions: 12 h; dosed: Fluorotelomer alcohol 8+2; 24 mg/kg; oral; Male; Harlan Sprague Dawley
Rat [37] = experiment: concentration in liver after dosing; conditions: 6 h; dosed: Fluorotelomer alcohol 8+2; 24 mg/kg; oral; Male; Harlan Sprague Dawley
Rat [38] = experiment: concentration in brain after dosing; conditions: 1 h; dosed: Fluorotelomer alcohol 8+2; 24 mg/kg; oral; Male; Harlan Sprague Dawley
Rat [39] = experiment: concentration in brain after dosing; conditions: 2 min; dosed: 2-Methyltetrahydrofuran; 40 mg/kg; iv; Male; Harlan Sprague Dawley
Rat [40] = experiment: concentration in plasma after dosing; conditions: 0.2 h; dosed: 2-Methyltetrahydrofuran; 40 mg/kg; iv; Male; Harlan Sprague Dawley
Rat [41] = experiment: concentration in plasma after dosing; conditions: 6 h; dosed: 2-Methyltetrahydrofuran; 40 mg/kg; iv; Male; Harlan Sprague Dawley

O=S(=O)([O-])C(F)(F)C(F)(F)C(F)(F)C(F)(F)C(F)(F)C(F)(F)C(F)(F)C(F)(F)F [Perfluorooctane Sulfonate]
Conditions | concentration in brain [ng/g] | concentration in kidney [ng/g] | concentration in liver [ng/g] | concentration in plasma [ng/mL]
Rat [1] | 11600 | – | – | –
Rat [2] | 851 | – | – | –
Rat [3] | 757 | – | – | –
Rat [4] | – | – | 25400 | –
Rat [5] | – | 4960 | – | –
Rat [6] | – | 651 | – | –
Rat [7] | – | – | 3090 | –
Rat [8] | – | – | 29100 | –
Rat [9] | – | 2450 | – | –
Rat [10] | – | – | – | 1490
Rat [11] | 7400 | – | – | –
Rat [12] | – | 4940 | – | –

Cc1ccc(C)c(OCCCC(C)(C)C(=O)O)c1 [Gemfibrozil]
Conditions | concentration in plasma [ng/mL]
Rat [13] | 131
Rat [14] | 110000
Rat [15] | 74.1
Rat [16] | 1100
Rat [17] | 33900

O=C(O)C(F)(F)C(F)(F)C(F)(F)C(F)(F)C(F)(F)F [Perfluorohexanoic Acid]
Conditions | concentration in kidney [ng/g] | concentration in liver [ng/g] | concentration in plasma [ng/mL]
Rat [18] | – | 23800 | –
Rat [19] | – | – | 540
Rat [20] | – | 41600 | –
Rat [22] | – | – | 134000
Rat [23] | – | – | 320
Rat [24] | – | – | 1240
Rat [25] | 1180 | – | –
Rat [26] | – | – | 8680
Rat [27] | – | 9200 | –
Rat [28] | 48100 | – | –
Rat [29] | – | – | 14700
Rat [31] | – | 15400 | –

concentration in plasma [ng/mL]
Conditions | 0.25 h | 3 h | 5 min | 6 h
Rat [21] | 19100 | – | – | 2380
Rat [30] | – | 34.9 | 18500 | –

O=C(O)CCC(F)(F)C(F)(F)C(F)(F)C(F)(F)C(F)(F)C(F)(F)C(F)(F)F [Fluorotelomer acid 7+3]
Conditions | concentration in brain [ng/g] | concentration in kidney [ng/g] | concentration in liver [ng/g] | concentration in plasma [ng/mL]
Rat [32] | 114 | – | – | –
Rat [33] | – | – | – | 62.9
Rat [36] | – | 751 | – | –
Rat [37] | – | – | 1860 | –
Rat [38] | 160 | – | – | –

concentration in plasma [ng/mL]
Conditions | 0.25 h | 6 h | 48 h | 192 h
Rat [34] | 41.6 | 841 | – | –
Rat [35] | – | – | 169 | 26.3

CC1CCCO1 (stereo not given) [2-Methyltetrahydrofuran]
Conditions | concentration in brain [ng/mL] | concentration in plasma [ng/mL]
Rat [39] | 39000 | –
Rat [40] | – | 37600
Rat [41] | – | 10.8
